Columns and labels:
[1] = aqueous solution of sophorolipid; cited from earlier work
Gtf-1 = experiment: In vitro HPLC-MS glucosyltransferase activity assay with sonicated extract of recombinant S. cerevisiae [pYES2/NT/gft1]; type: biochemical, C. bombicola; settings: for glucosyltransferase enzyme activity toward lipid substrate (appearance of glucoside product): UDP-glucose as sugar substrate, 30° C., 3 hours, HPLC-MS, product absent with control [pYES2/NT/lacZ] extract; for effect of lipid stock solvent on enzyme activity: solvent used to prepare 50 mM lipid stock solution
Description: An in vitro enzyme activity assay is performed to verify the functional property of Gtf-1 expressed in the recombinant S. cereviciae [pYES2/NT/gft1]. In this plasmid, the expression of gtf-1 is regulated by a yeast GAL1 promoter that is inducible by the addition of galactose (FIG. 1). An HPLC-MS-based method is developed to assay for glucosyltransferase activity in recombinant S. cerevisiae expressing C. bombicola gft-1 gene cloned in the pYES2/NT/gft1 plasmid construct. As control samples, S. cerevisiae transformed with pYES2/NT/gft1CON and pYES2/NT/lacZ are included in the study. The growing and induction of S. cerevisiae cells is performed according to the protocol described in the manual of pYES2/NT Yeast Expression System (Invitrogen, Carlsbad, Calif.). Briefly, cells from long-term (−80° C.) storage stock cultures are streaked on Yeast Extract Peptone Dextrose (YPD) agar solid medium (1% w/v yeast extract, 2% w/v peptone, 2% w/v dextrose (D-(+)glucose), 2% w/v agar) and grown at 30° C. for 1 to 2 days. A single colony is picked to inoculate 5 ml of SC-U+Glu(2%) in a 25-ml Erlenmeyer flask. The culture is grown overnight at 30° C. and 200 rpm. A volume of the overnight culture, which is based on achieving a theoretical absorbance at 600 nm (A600 nm)=0.4 in the fresh culture, is added to 50 ml of SC-U+Raf(2%) medium in a 125-ml Erlenmeyer. After an overnight incubation (30° C., 200 rpm), A600 nm values of the cultures are recorded. Five ml of sterile 20% (w/v) D-(+)-galactose are added to each culture to induce expression of the cloned gene, and the cells are incubated for 4 hours at 30° C., 200 rpm. Cells are then harvested by centrifugation (Sorvall RC-5B Plus centrifuge; 5,000×g; 10 min; 4° C.) (ThermoFisher Scientific, Waltham, Mass.) with the supernatant being decanted. The pelleted cells are resuspended and washed with 5 ml cold water, undergo another centrifugation using same parameters with removal of the supernatant after centrifugation, and are resuspended in a volume of a Breaking Buffer (50 mM sodium phosphate at pH 7.4; 1 mM Na-EDTA; 5% v/v glycerol; 1 mM phenylmethylsulfonylfluoride (PMSF) which is added immediately before use) in 15-mL Corex centrifugation tube to give a theoretical A600 nm of 200. Cell suspension can be stored at −20° C. overnight and still retain glucosyltransferase activity. Cells are broken by sonication (Sonicator model W-385 equipped with a microtip probe; Heat-Systems, Inc., Farmingdale, N.Y.) for 10 to 15 seconds (with 30 seconds sample cooling on ice-water bath) at maximum probe-tolerant power setting. The sonicated cell suspension (SCS) is used in the reaction mixtures to assay for glycosylation activity.
The reaction mixture for glycosylation assay is largely based on that described by Saerens et al. 2011b. The following procedure is used: 10 μl of a 50 mM-lipid substrate stock solution (which is prepared in one of the following solvents: DMF (dimethylformamide), DMSO ([…]), THF (tetrahydrofuran), ethylacetate, or ethanol) and 10 μl of a 50 mM-UDP-glucose solution (Sigma Aldrich, St. Louis, Mo.) are added to 30 μl of 50 mM potassium phosphate buffer (pH 7.5) in a 13×100 mm test tube on ice. 200 μl of the sonicated cell suspension is then added to the mixture of the two substrates. The final reaction mixture (250 μl) is incubated at 30° C. for 3 hours with frequent manual mixing (approximately every 10-15 minutes). The reaction is stopped by the addition of 200 μl of 2N HCl, followed by vigorous vortex mixing for approximately 30 to 60 seconds. The reaction mixture is extracted with 1 to 2 ml 1:1 v/v ethylether/ethylacetate mixture by vigorous vortex mixing. The tube is placed on lab bench undisturbed for phase separation to occur. Using a Hamilton syringe, the organic phase (upper layer) is carefully removed and is placed into a clean test tube (12×75 mm). The solvent is then evaporated by passing a stream of nitrogen gas over the solution, leaving a dry residue. […]

Compound	glucosyltransferase enzyme activity toward lipid substrate (appearance of glucoside product) (Gtf-1)	other results
sophorolipid	–	Surface tension [1]: 30-40 mN/m
CC[C@H](CC[C@@H](C)[C@H]1CC[C@H]2[C@@H]3CC=C4C[C@@H](O)CC[C@]4(C)[C@H]3CC[C@]12C)C(C)C [β-sitosterol]	give the same results	–
17-hydroxy-oleate [17-OH oleate]	presence of glucosyltransferase enzyme activity is confirmed	–
C1CCOC1 [THF, tetrahydrofuran]	–	effect of lipid stock solvent on enzyme activity (Gtf-1): inhibits enzyme activity
CC(C)[C@@H](C)/C=C/[C@@H](C)[C@H]1CC[C@H]2C3=CC=C4C[C@@H](O)CC[C@]4(C)[C@H]3CC[C@]12C [ergosterol]	give the same results	–
CN(C)C=O [DMF, dimethylformamide]	–	effect of lipid stock solvent on enzyme activity (Gtf-1): without adversely impacting on enzymatic activity
CC(C)CCC[C@@H](C)[C@H]1CC[C@H]2[C@@H]3CC=C4C[C@@H](O)CC[C@]4(C)[C@H]3CC[C@]12C [cholesterol]	presence of glucosyltransferase enzyme activity is confirmed	–
CC[C@H](/C=C/[C@@H](C)[C@H]1CC[C@H]2[C@@H]3CC=C4C[C@@H](O)CC[C@]4(C)[C@H]3CC[C@]12C)C(C)C [stigmasterol]	give the same results	–

Source: US9388444B2, “Use of glucosyltransferase gene” (The United States of America, as represented by the …, priority 2013, dated 2016)
